Reference: ChEMBL document CHEMBL4811283, “New camptothecin derivatives for generalized oncological chemotherapy: Synthesis, stereochemistry and biology” (Bioorg Med Chem Lett, 2021)

Columns and labels:
[1] = test system: HT-29; assay: Cytotoxicity against human HT-29 cells assessed as inhibition of cell growth measured after 72 hrs; type: functional, cell-based; details: HT-29, 72 h
[2] = test system: A549; assay: Cytotoxicity against human A549 cells assessed as inhibition of cell growth measured after 72 hrs; type: functional, cell-based; details: A549, 72 h
[3] = test system: CCD-841CoN; assay: Cytotoxicity against human CCD-841CoN cells assessed as inhibition of cell growth measured after 72 hrs; type: cell-based
[4] = test system: HL-60; assay: Cytotoxicity against human HL-60 cells assessed as inhibition of cell growth measured after 72 hrs; type: functional, cell-based; details: HL-60, 72 h
[5] = test system: MCF7; assay: Cytotoxicity against human MCF7 cells assessed as inhibition of cell growth measured after 72 hrs; type: functional, cell-based; details: MCF7, 72 h

| Compound | IC50 [1] | IC50 [2] | IC50 [3] | IC50 [4] | IC50 [5] |
| --- | --- | --- | --- | --- | --- |
| C=c1c2c(CC)c3cc(O)ccc3nc2c2cc3c(c(=O)n12)COC(=O)[C@]3(O)CC | 0.15 µM | 1.94 µM | 92.2 µM | – | – |
| CCc1c2c(nc3ccc(O)cc13)-c1cc3c(c(=O)n1[C@H]2CN1CCCC1)COC(=O)[C@]3(O)CC | 0.598 µM | 0.204 µM | 24.4 µM | 0.011 µM | 0.81 µM |
| CCc1c2c(nc3ccc(O)c(CN4CCC4)c13)-c1cc3c(c(=O)n1[C@@H]2CO)COC(=O)[C@]3(O)CC | 2.5 µM | 1.17 µM | > 1000 µM | 0.113 µM | 6.7 µM |
| CCc1c2c(nc3ccc(O)cc13)-c1cc3c(c(=O)n1[C@H]2CO)COC(=O)[C@]3(O)CC | 9.48 µM | 4.27 µM | 382 µM | 0.722 µM | 15.9 µM |
| CCc1c2c(nc3ccc(O)c(CN4CCC4)c13)-c1cc3c(c(=O)n1[C@H]2CO)COC(=O)[C@]3(O)CC | 6.98 µM | 5.22 µM | > 1000 µM | 0.334 µM | 11.1 µM |
| CCc1c2c(nc3ccc(O)c(N(C)CCO)c13)-c1cc3c(c(=O)n1C2)COC(=O)[C@]3(O)CC | 0.15 µM | 0.403 µM | 36.1 µM | 0.009 µM | 1.21 µM |
| CCc1c2c(nc3ccc(O)c(CO)c13)-c1cc3c(c(=O)n1C2)COC(=O)[C@]3(O)CC | 0.68 µM | 11 µM | > 1000 µM | – | – |
| CCc1c2c(nc3ccc(O)cc13)-c1cc3c(c(=O)n1[C@@H]2CO)COC(=O)[C@]3(O)CC | 14.8 µM | 6.54 µM | 62 µM | 1.89 µM | 14.9 µM |
| CCc1c2c(nc3ccc(O)cc13)-c1cc3c(c(=O)n1[C@@H]2CN1CCCC1)COC(=O)[C@]3(O)CC | 0.493 µM | 0.272 µM | 21.8 µM | 0.007 µM | 0.906 µM |
| CCc1c2c(nc3ccc(O)cc13)-c1cc3c(c(=O)n1C2)COC(=O)[C@]3(O)CC [7-ETHYL-10-HYDROXYCAMPTOTHECIN] | 0.02 µM | 0.028 µM | 4.98 µM | 0.002 µM | 0.66 µM |
| CCc1c2c(nc3ccc(OC(=O)N4CCC(N5CCCCC5)CC4)cc13)-c1cc3c(c(=O)n1C2)COC(=O)[C@]3(O)CC [IRINOTECAN] | 6.85 µM | 26.7 µM | 90.2 µM | 4.24 µM | 14.1 µM |
